Measurements published in EP2874610B1, “MULTILAYERED PHARMACEUTICAL FORMULATION” (Recordati Industria Chimica E Farmaceutica SPA, priority 2012, dated 2014).

Key:
clinical = conditions: for AUC(0-inf): AUCinf; for time plasma levels were maintained at plateau: three layer tablet of example 4, Figure 6
Procedure: A three layer tablet of gabapentin 375 mg and flurbiprofen 37.5 mg, prepared as described in example 4, was administered to 24 healthy male and female subjects, 18-55 years old, in fasting conditions and after a high fat meal in single dose according to a randomized cross-over design. The treatment periods were separated by a wash out interval of at least 5 days.
Each dose was taken with 240 mL of water in fasting conditions from at least 10 hours or 30 minutes after a standardized meal, which was high-caloric (approximately 1000 Kcal) and high-fat (approximately 50 percent of total caloric content of the meal).
Gabapentin and flurbiprofen plasma levels were determined by a validated HPLC/MS/MS analytical method at the following times: pre-dose, 0.5, 1, 1.5, 2, 3, 4, 5, 6, 7, 8, 10, 12, 16, 24 and 32 h post-dose.

[1] = Dissolution test by immersion into simulated gastric fluid (USP apparatus II), then pH raised to 7.2; type: physicochemical
Procedure: The dissolution profile of the trilayered tablets prepared as described in examples 1, 2 and 3 was determined by immersion into simulated gastric fluid (USP apparatus II for dissolution test).
After immersion, the tablets (n = 6) placed themselves on the bottom of the vessel and the development of CO2 bubbles which remained entrapped into the hydroxypropylmethylcellulose gel formed in contact with the aqueous medium was observed from layer A. At the same time, layer B rapidly disintegrated in correspondence with the side surface of the layer exposed to the simulated gastric fluid.
The dissolution profile of the trilayered tablets prepared as described in examples 6, and 7 was determined by immersion into simulated gastric fluid (USP apparatus II for dissolution test).

[2] = Dissolution rate under simulated fasting and fed conditions (SGF pH 1.2, FaSSGF pH 1.6, FeSSGFm pH 5.0); type: physicochemical; conditions: tablets of example 2
Procedure: The dissolution rate of trilayered tablets prepared as described in example 2, was evaluated also under simulated fasting and fed conditions. The evaluation was carried out under the following conditions: simulated gastric fluid at pH1.2 (SGF), simulated gastric fluid at pH 1.6 (FaSSGF) for fasting conditions and simulated gastric fluid at pH 5.0 (FeSSGFm) for fed conditions.

[3] = both, human, in vivo, Fed conditions (high fat meal), three layer tablet of example 4, single dose, arithmetic mean ± s.d., n=24
[4] = three layer tablet of example 4, single dose

CC(C(=O)O)c1ccc(-c2ccccc2)c(F)c1 (stereo not shown) [flurbiprofen]
Ratio of geometric means, AUCinf, Test / Reference (Fed / fasting) (clinical; both, human, in vivo): 98%
Ratio of geometric means, Cmax, Test / Reference (Fed / fasting) (clinical; both, human, in vivo): 157%
time after intake up to which release was very low (clinical; both, human, in vivo): up to 2 hours
time post dose at which plasma levels reached a plateau (clinical; both, human, in vivo): around 4 hour
AUC(0-inf) (clinical; both, human, in vivo): 35700 ± 13200 ng·h/mL
Tmax (clinical; both, human, in vivo): 12 h
release of flurbiprofen contained in layer C in simulated gastric fluid ([1]; tablets of example 1, before raising the pH): not released in the first hour
release of flurbiprofen contained in layer C after having raised the pH to 7.2 ([1]; tablets of example 1, in 5 hours, linear release): 100%
release of flurbiprofen contained in layer C after having raised the pH to 7.2 ([1]; tablets of example 2, in 6 hours, linear release): 90%
release of flurbiprofen contained in layer C in simulated gastric fluid ([1]; tablets of example 2, pH 1.2): not released at pH 1.2
release of flurbiprofen contained in layer C after having raised the pH to 7.2 ([1]; tablets of example 3, in 6 hours, linear release): 90%
release of flurbiprofen contained in layer C in simulated gastric fluid ([1]; tablets of example 3, pH 1.2): not released at pH 1.2
release of flurbiprofen contained in layer C in simulated gastric fluid ([1]; tablets of example 6, before raising the pH): not released in the first hour
release of flurbiprofen contained in layer C after having raised the pH to 7.2 ([1]; tablets of example 6, in 5 hours): 100%
release of flurbiprofen contained in layer C after having raised the pH to 7.2 ([1]; tablets of example 7, in 7 hours, linear release): 90%
release of flurbiprofen contained in layer C in simulated gastric fluid ([1]; tablets of example 7, pH 1.2): not released at pH 1.2

NCC1(CC(=O)O)CCCCC1 [gabapentin]
f2 factor, similarity index between SGF and FaSSGF release profiles ([2]; pH 1.2 vs pH 1.6): 83
f2 factor, similarity index between SGF and FeSSGFm release profiles ([2]; pH 1.2 vs pH 5.0): 65.8
f2 factor, similarity index between FaSSFG and FeSSGFm release profiles ([2]; pH 1.6 vs pH 5.0): 55.7
comparison of dissolution profiles in SGF, FaSSGF and FeSSGFm ([2]; result in words): did not show significant differences
AUC(0-inf) (clinical; both, human, in vivo, Fasting conditions, three layer tablet of example 4, single dose, arithmetic mean ± s.d., n=24): 24100 ± 8150 ng·h/mL
AUC(0-inf) (clinical; [3]): 39200 ± 9070 ng·h/mL
Cmax (clinical; both, human, in vivo, Fasting conditions, three layer tablet of example 4 (gabapentin 375 mg, flurbiprofen 37.5 mg), single dose, arithmetic mean ± s.d., n=24): 2340 ± 748 ng/mL
Cmax (clinical; [3]): 3080 ± 727 ng/mL
Tmax (clinical; both, human, in vivo, Fasting conditions, three layer tablet of example 4, single dose, median (min - max), n=24): 4 h
Tmax (clinical; both, human, in vivo, Fed conditions (high fat meal), three layer tablet of example 4, single dose, median (min - max), n=24): 5 h
time plasma levels were maintained at plateau (clinical; fasting conditions): about 4 hours
time plasma levels were maintained at plateau (clinical; fed conditions): 8 h
Ratio of geometric means, AUCinf, Test / Reference (Fed / fasting) (clinical; [4]): 167%
Ratio of geometric means, Cmax, Test / Reference (Fed / fasting) (clinical; [4]): 136%
release time of gabapentin contained in layer B ([1]; tablets of example 1): ≤ 5 min
release time of remaining dose of gabapentin contained in layer A ([1]; tablets of example 1, slow prolonged release): about 8 hours
release time of gabapentin contained in layer B ([1]; tablets of example 2): ≤ 15 min
release time of remaining dose of gabapentin contained in layer A ([1]; tablets of example 2, slow prolonged release): about 9 hours
release time of gabapentin contained in layer B ([1]; tablets of example 3): ≤ 15 min
release time of remaining dose of gabapentin contained in layer A ([1]; tablets of example 3, slow prolonged release): about 9 hours
release time of gabapentin contained in layer B ([1]; tablets of example 6): ≤ 15 min
release of remaining dose of gabapentin contained in layer A ([1]; tablets of example 6, in about 9 hours, slow prolonged release): 90%
release time of gabapentin contained in layer B ([1]; tablets of example 7): ≤ 15 min
release time of remaining dose of gabapentin contained in layer A ([1]; tablets of example 7, slow prolonged release): about 9 hours
